{
  "source": "patent US12582632B2",
  "about": "“Inhibition of neurological injuries due to infections via administration of Butanetap and analogs thereof” (priority 2021, dated 2026)",
  "key": {"[1]": {"system": "fully differentiated healthy resting nerve cells", "test": "Translation of neurotoxic aggregating proteins in differentiated nerve cells", "format": "cell-based", "excerpt": "(§1) Therefore, the original data concerning the effects of butanetap working under all conditions is wrong. (See, e.g., Lahiri, et al., “The Experimental Alzheimer's Disease Drug butanetap [(+)-Phenserine] Lowers Amyloid-β Peptide Levels in Cell Culture and Mice”, J. Pharmacol. Ther. 320:386-396, 2007 (hereby incorporated by reference)). It only works in stressed cells, dividing cells and sick cells, e.g., those cells that have high levels of iron."}, "[2]": {"test": "Plasma and brain levels in mice by dose", "format": "in vivo"}, "[3]": {"system": "neuroblastoma cells (SH-SY5Y)", "test": "Gingipain-induced cell aggregation", "format": "cell-based", "conditions": "24 hours RgpB (10 ug/ml), Kgp (10 ug/ml), or both, FIG. 11"}, "[4]": {"system": "Immortalized Mouse Astrocytes—SV40T (IMA2.1)", "test": "Gingipain cytotoxicity on astrocytes, AlamarBlue viability", "format": "cell-based", "conditions": "retest at much lower concentrations, 1 nM, FIG. 10", "description": "(§2) Immortalized Mouse Astrocytes—SV40T (IMA2.1), immortalized Mouse Microglia (SIM-A9) and immortalized neuroblastoma (SH-SY5Y) cells were infected for 48 hours with gingipains HRgpA and RgpB (arginine gingipains), and Kgp (lysine-specific cysteine proteinase—Lys-gingipain, KGP). After 48 hours the cells were assessed for viability with the AlamarBlue assay and the percentage of dead or alive cells versus control was plotted. […] As expected, since neither are dying, […]. […] Therefore, we expect the efficacious buntanetap dose to fight P. gingivalis infection to be the same as to treat Alzheimer's and Parkinson's disease has no impact on the microglia or neuroblastoma survival in the presence of gingipains.\nFIG. 10 show the results of retesting of the gingipain effect on astroglia at much lower concentrations."}, "[5]": {"system": "neurotoxic aggregating proteins in stem cells (dividing cells)", "test": "Neurotoxic aggregating proteins in stem cells and derived neurons", "format": "cell-based"}, "[6]": {"system": "neurotoxic aggregating proteins", "test": "Translation of neurotoxic aggregating proteins in healthy mouse brain", "format": "in vivo", "excerpt": "as §1"}, "[7]": {"system": "APP, Tau, αSYN and inflammatory markers in CSF", "conditions": "MCI subjects, cited from earlier work"}, "αSYN": {"system": "αSYN", "format": "in vivo, mice", "conditions": "50 and 65 mg/kg for 21 days, FIG. 6"}, "[8]": {"system": "immortalized neuroblastoma (SH-SY5Y) cells", "test": "Gingipain cytotoxicity on neuroblastoma cells, AlamarBlue viability", "format": "cell-based", "conditions": "48 hours, between 1 and 10 nM", "description": "as §2"}, "[9]": {"system": "Tau in transgenic neo-natal human Tau mice cells", "test": "Tau in vitro", "format": "cell-based", "conditions": "cells treated for 4 days, antibodies against Tau and phospho-Tau, FIG. 3", "description": "The cells were treated for 4 days with butanetap harvested, solubilized, and tested with antibodies against Tau and phospho-Tau. • B. FIG. 4, Tau in vivo. […] After 6 weeks, mice were killed and the total and insoluble (aggregated) tau was measured. […] Precipitated tau corresponds to tangles in the brain."}, "[10]": {"system": "Ts65dn mouse model of Down syndrome (DS)", "test": "Ts65dn mouse model of Down syndrome", "format": "in vivo", "conditions": "Ts65dn mice", "excerpt": "(§3) Butanetap's efficacy in treating neurodegeneration in animal models: Restored memory and learning in an APP/PS1 transgenic (tg) mouse model of AD; Restored memory and learning in a Ts65dn mouse model of Down syndrome (DS) [W. Mobley, UCSD, submitted 2020]; Preserved the retina in acute glaucoma [J Sundstrom; Hershey Medical School]; Restored colonic motility in a human SNCAA53T tg mouse model of PD (Kuo et. al., Am J Neurodegener Dis 2019; 8(1):1-15 www.AJND.us/ISSN:216 591X/AJND0086080: Translational inhibition of α-synuclein by Butanetap (Posiphen) normalizes distal colon motility in transgenic Parkinson mice); Preserved memory and learning in traumatic brain injury rats (M-F Chesselet, submitted 2020)."}, "[11]": {"system": "traumatic brain injury rats", "test": "Traumatic brain injury rats", "format": "in vivo, rat", "excerpt": "as §3\nButanetap's reversal of the neurotoxic cascade: Butanetap's mechanism of action is related to APP, Tau, and aSYN expression being regulated by RP1 and by iron and the way these proteins contribute to neurodegeneration by accumulating as toxic aggregates that impair axonal transport and synaptic transmission, causing inflammation, and, finally, leading to nerve cell death (as described previously)."}, "[12]": {"system": "aSYN in SH-SY-5Y human neuroblastoma cells", "test": "alpha-synuclein in vitro, Western blot", "format": "cell-based", "conditions": "0, 0.1, 1, 5 and 10 μM, FIG. 5", "description": "• A. FIG. 5, alpha-synuclein in vitro. […] On the left is a Western blot showing butanetap inhibition of aSYN in relation to Actin standard at concentrations of 0, 0.1, 1, 5 and 10 μM and on the right a graph showing the same data plotted for statistical analysis purposes. • B. FIG. 6, alpha-synuclein brain in vivo. […] The animals were only treated for 2 weeks, so in brain it takes butanetap only 2 weeks to lower levels of alpha-synuclein. • C. FIG. 7, alpha-synuclein in gut in vivo. Gut levels of aSYN following treatment of PD A53T mice with 10 mg/kg for 21 weeks and 21 days reduced αSYN levels in the gut as shown by Western Blot."}, "[13]": {"system": "neurotoxic aggregating proteins", "test": "Neurotoxic aggregating proteins in cerebral cortex of transgenic AD and PD animals"}},
  "data": [
    {"smiles": "CN1CC[C@]2(C)c3cc(OC(=O)Nc4ccccc4)ccc3N(C)C12", "note": "(stereo partly drawn) [butanetap, (3aR)-1,3a,8-trimethyl-1,2,3,3a,8,8a-hexahydropyrrolo[2,3-b]indol-5-yl phenylcarbamate]", "values": [
      {"measurement": "translation of neurotoxic aggregating proteins", "setting": "[1]", "value": "does not inhibit"},
      {"measurement": "Brain levels in mice", "setting": "[2]; dose 0.014 mg/kg", "value": 0, "unit": "ng/gram"},
      {"measurement": "Brain levels in mice", "setting": "[2]; dose 0.07 mg/kg", "value": 0, "unit": "ng/gram"},
      {"measurement": "Brain levels in mice", "setting": "[2]; dose 0.143 mg/kg", "value": 0, "unit": "ng/gram"},
      {"measurement": "Brain levels in mice", "setting": "[2]; dose 0.16 mg/kg", "value": 0, "unit": "ng/gram"},
      {"measurement": "Brain levels in mice", "setting": "[2]; dose 0.21 mg/kg", "value": 0, "unit": "ng/gram"},
      {"measurement": "Brain levels in mice", "setting": "[2]; dose 0.23 mg/kg", "value": 0, "unit": "ng/gram"},
      {"measurement": "Brain levels in mice", "setting": "[2]; dose 0.29 mg/kg", "value": 0, "unit": "ng/gram"},
      {"measurement": "Brain levels in mice", "setting": "[2]; dose 0.34 mg/kg", "value": 0, "unit": "ng/gram"},
      {"measurement": "Brain levels in mice", "setting": "[2]; dose 0.57 mg/kg", "value": 0, "unit": "ng/gram"},
      {"measurement": "Brain levels in mice", "setting": "[2]; dose 1 mg/kg", "value": 16, "unit": "ng/gram"},
      {"measurement": "Brain levels in mice", "setting": "[2]; dose 1.14 mg/kg", "value": 16.8, "unit": "ng/gram"},
      {"measurement": "Brain levels in mice", "setting": "[2]; dose 1.71 mg/kg", "value": 0, "unit": "ng/gram"},
      {"measurement": "Brain levels in mice", "setting": "[2]; dose 2.13 mg/kg", "value": 31.2, "unit": "ng/gram"},
      {"measurement": "Brain levels in mice", "setting": "[2]; dose 2.29 mg/kg", "value": 0, "unit": "ng/gram"},
      {"measurement": "Brain levels in mice", "setting": "[2]; dose 3 mg/kg", "value": 48, "unit": "ng/gram"},
      {"measurement": "Brain levels in mice", "setting": "[2]; dose 5 mg/kg", "value": 80, "unit": "ng/gram"},
      {"measurement": "Brain levels in mice", "setting": "[2]; dose 10 mg/kg", "value": 160, "unit": "ng/gram"},
      {"measurement": "Brain levels in mice", "setting": "[2]; dose 20 mg/kg", "value": 400, "unit": "ng/gram"},
      {"measurement": "Brain levels in mice", "setting": "[2]; dose 30 mg/kg", "value": 800, "unit": "ng/gram"},
      {"measurement": "Brain levels in mice", "setting": "[2]; dose 40 mg/kg", "value": 1200, "unit": "ng/gram"},
      {"measurement": "Brain levels in mice", "setting": "[2]; dose 50 mg/kg", "value": 1680, "unit": "ng/gram"},
      {"measurement": "Brain levels in mice", "setting": "[2]; dose 60 mg/kg", "value": 2400, "unit": "ng/gram"},
      {"measurement": "Brain levels in mice", "setting": "[2]; dose 80 mg/kg", "value": 4800, "unit": "ng/gram"},
      {"measurement": "Brain levels in mice", "setting": "[2]; dose 100 mg/kg", "value": 8000, "unit": "ng/gram"},
      {"measurement": "gingipain-induced cell aggregation", "setting": "[3]", "value": "blocks"},
      {"measurement": "protection of gingipain infected astrocytes", "setting": "[4]", "value": "completely protected"},
      {"measurement": "protection of gingipain infected astrocytes", "setting": "[4]; listed as buntanetap", "value": "protects astrocytes at very low concentrations"},
      {"measurement": "neurotoxic aggregating proteins", "setting": "[5]; differentiated neurons derived from the stem cells", "value": "not in the differentiated neurons"},
      {"measurement": "neurotoxic aggregating proteins", "setting": "[5]; stem cells (dividing cells)", "value": "inhibits"},
      {"measurement": "translation of neurotoxic aggregating proteins", "setting": "[6]", "value": "does not inhibit"},
      {"measurement": "levels of APP, Tau, and αSYN in the cerebrospinal fluid (CSF)", "setting": "[7]; 4×60 mg/day", "value": "normalized"},
      {"measurement": "CSF Aβ42", "setting": "[7]", "value": "trend to lower"},
      {"measurement": "CSF levels of p-tau", "setting": "[7]", "value": "significantly lowered"},
      {"measurement": "CSF levels of sAPPα", "setting": "[7]", "value": "significantly lowered"},
      {"measurement": "CSF levels of sAPPβ", "setting": "[7]", "value": "significantly lowered"},
      {"measurement": "CSF levels of specific inflammatory markers", "setting": "[7]", "value": "significantly lowered"},
      {"measurement": "CSF levels of t-tau", "setting": "[7]", "value": "significantly lowered"},
      {"measurement": "half-life in CSF", "setting": "[7]", "value": "> 12", "unit": "h"},
      {"measurement": "αSYN in the brain", "setting": "αSYN", "value": "reduced"},
      {"measurement": "neuroblastoma survival in the presence of gingipains", "setting": "[8]", "value": "no impact"},
      {"measurement": "Tau expression", "setting": "[9]", "value": "reduces"},
      {"measurement": "memory and learning", "setting": "[10]", "value": "Restored"},
      {"measurement": "inflammation", "setting": "[11]; rat brain after TBI", "value": "lowered"},
      {"measurement": "impaired synaptic transmission", "setting": "[11]; rat striatum after TBI", "value": "Normalized"},
      {"measurement": "nerve cells", "setting": "[11]; rat substantia nigra after TBI", "value": "protected"},
      {"measurement": "memory and learning", "setting": "[11]; traumatic brain injury rats", "value": "Preserved"},
      {"measurement": "aSYN in relation to Actin standard", "setting": "[12]", "value": "lowers aSYN in vitro in a dose-dependent manner"},
      {"measurement": "neurotoxic aggregating proteins", "setting": "[13]", "value": "not inhibit"}
    ]}
  ]
}
